Laboratory results from article PMC7016953 (Cells, 2020).

Experiments:
mTRPC5-YFP = system: T1, mTRPC5-YFP; assay: Selectivity profiling, fluo-4 [Ca2+]i response, TRPC5; format: cell-based, mouse; settings: 100 µM
T1 construct: expressed in transfected cells
Experimental: (§1) Human embryonic kidney 293 (HEK293) cells were stably transfected with expression plasmids that encode hTRPC3-YFP, hTRPC6-YFP, hTRPC7-YFP, mTRPC4ß-YFP, rTRPV1-CFP, rTRPV2-YFP, rTRPV3-YFP, mTRPV4-YFP, or hTRPM2 as previously described. Cell lines were cultured in Earle’s minimum essential medium (MEM; Sigma, Munich, Germany), supplemented with 10% fetal calf serum (Gibco Thermo Fisher Scientific, Darmstadt, Germany), 2 mM L-glutamine, and required concentrations of geneticin in a range of 0.4–1 mg/mL. A HEK293mTRPC5-YFP cell line was maintained and induced as described before. […] For electrophysiological and single cell [Ca^2+]i imaging experiments, PC12 cells were plated onto 25 mm poly-L-lysine-coated glass coverslips and measured 24–48 h after seeding. […]
(§2) The primary compound screen and the generation of concentration response curves in HEK293 cells or in PC12 cells were performed by using a custom-made fluorescence plate imager built into a robotic liquid handling station equipped with a 96-tip multichannel head (Freedom Evo 150, Tecan, Männedorf, Switzerland) as described previously. […] Plates were mounted on the imager, and fluorescence signals were recorded with a cooled Zyla 5.5 camera (Andor, Belfast, UK) through a 515 nm long pass filter. […] When inhibitory potencies were evaluated, a second pipetting step with the respective reference agonist was performed. […]

rTRPV1-CFP = system: T2, rTRPV1-CFP; assay: Selectivity profiling, fluo-4 [Ca2+]i response, TRPV1; format: cell-based, rat; settings: 100 µM
T2 construct: expressed in transfected cells
Experimental: as §1, §2

[1] = system: human protein kinase C (PKC) ε; assay: Plasma membrane translocation of PKCε-YFP fusion protein; format: cell-based; settings: 50 µM
TRPC6 = system: T3, TRPC6; assay: Whole-cell patch-clamp recordings in HEK TRPC6-YFP cells; format: cell-based, human; settings: 100 µM artemisinin
T3 construct: expressed in transfected cells
Experimental: The recordings of TRPC3, TRPC6, or TRPC7 membrane currents in HEK293 or PC12 cells were realized by using a Multiclamp 700B amplifier with a Digidata 1440A digitizer controlled by the PClamp 10 software (all Molecular Devices, Sunnyvale, CA, U.S.A.). Recordings were obtained at room temperature either in the whole-cell or in an outside-out configuration as indicated. Cells were seeded as described above, but at lower density, mounted in a chamber (Warner Instruments, Hamden, CT; U.S.A.), placed onto the stage of an inverted microscope, and perfused with required solution. The standard extracellular solution contained 140 mM NaCl, 5 mM CsCl, 2 mM MgCl2, 1 mM CaCl2, 10 mM HEPES, and 0.035% BSA adjusted to pH 7.4 with NaOH. The composition of standard intracellular solution was 140 mM CsCl, 1 mM MgCl2, 5 mM EGTA, and 10 mM HEPES adjusted to pH 7.25 with CsOH; the osmolarity was 295 mOsm l^−1. In outside-out measurements, the pipette solution contained 5 mM EGTA and 1.1 mM CaCl2 to achieve a calculated free Ca^2+ concentration of 100 nM.
Patch pipettes were pulled from borosilicate glass capillaries BG150F-8P (Science Products, Hofheim, Germany) with a PIP6 pipette puller (HEKA Elektronik, Lambrecht, Germany). […] In all whole-cell measurements, the series resistance was lower than 13 MΩ, and compensated by 70%. […]

Structure (SMILES): C[C@@H]1CC[C@H]2[C@@H](C)C(=O)O[C@@H]3O[C@@]4(C)CC[C@@H]1[C@]32OO4 [artemisinin]
- [Ca2+]i response, TRPC5 (mTRPC5-YFP): none of the cell lines responded
- [Ca2+]i response, TRPV1 (rTRPV1-CFP): none of the cell lines responded
- plasma membrane translocation of PKCε-YFP [1]: did not induce a discernible plasma membrane translocation
- ionic currents in TRPC6-expressing HEK cells (TRPC6): remained unaffected
